Source: PubChem BioAssay AID330 (DTP/NCI, 2004)
Where “and” joins values, the source holds several entries; their conditions need not be identical. Identical values can stand only once. Inconclusive results and toxic doses are left out. The calls were made as follows: active = survival T/C of 150% or more; inactive = T/C below 125% in these data.

System: P388 leukemia ip, CD2F1 mice, survival T/C
Experiment: NCI In Vivo Anticancer Drug Screen. Data for tumor model P388 Leukemia (intraperitoneal) in CD2F1 (CDF1) mice
Conditions: endpoint: median survival time, higher = longer survival
How it was run: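 Mice carrying the transplanted tumor received test compound or vehicle. Survival was recorded in each group, and the value is the treated-group measurement divided by that of the vehicle-treated control group.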

[1] = dose: 50.0 mg/kg/injection, schedule: Q01DX009 (ip), vehicle: Klucel (hydroxypropylcellulose) (HPC)
[2] = dose: 100.0 mg/kg/injection, schedule: Q01DX009 (ip), vehicle: Klucel (hydroxypropylcellulose) (HPC)
[3] = dose: 200.0 mg/kg/injection, schedule: Q01DX009 (ip), vehicle: Klucel (hydroxypropylcellulose) (HPC)
[4] = dose: 50.0 mg/kg/injection, schedule: Q01DX009 (ip), vehicle: saline
[5] = dose: 100.0 mg/kg/injection, schedule: Q01DX009 (ip), vehicle: saline
[6] = dose: 200.0 mg/kg/injection, schedule: Q01DX009 (ip), vehicle: saline
[7] = dose: 50.0 mg/kg/injection, schedule: Q01DX005 (ip), vehicle: saline
[8] = dose: 100.0 mg/kg/injection, schedule: Q01DX005 (ip), vehicle: saline
[9] = dose: 50.0 mg/kg/injection, schedule: Q01DX005 (ip), vehicle: Klucel (hydroxypropylcellulose) (HPC)
[10] = dose: 100.0 mg/kg/injection, schedule: Q01DX005 (ip), vehicle: Klucel (hydroxypropylcellulose) (HPC)
[11] = dose: 200.0 mg/kg/injection, schedule: Q01DX005 (ip), vehicle: Klucel (hydroxypropylcellulose) (HPC)
[12] = dose: 60.0 mg/kg/injection, schedule: Q01DX005 (ip), vehicle: saline with Tween-80
[13] = dose: 120.0 mg/kg/injection, schedule: Q01DX005 (ip), vehicle: saline with Tween-80
[14] = dose: 12.5 mg/kg/injection, schedule: Q01DX009 (ip), vehicle: distilled water + Tween-80
[15] = dose: 25.0 mg/kg/injection, schedule: Q01DX009 (ip), vehicle: distilled water + Tween-80
[16] = dose: 50.0 mg/kg/injection, schedule: Q01DX009 (ip), vehicle: distilled water + Tween-80
[17] = dose: 100.0 mg/kg/injection, schedule: Q01DX009 (ip), vehicle: distilled water + Tween-80
[18] = dose: 240.0 mg/kg/injection, schedule: Q01DX005 (ip), vehicle: saline with Tween-80
[19] = dose: 12.5 mg/kg/injection, schedule: Q01DX009 (ip), vehicle: saline
[20] = dose: 25.0 mg/kg/injection, schedule: Q01DX009 (ip), vehicle: saline

Measured: T/C

CC(=O)OCC1OC(n2ccc3c(=O)n(C)c(=O)[nH]c32)C(OC(C)=O)C(OC(C)=O)C1OC(C)=O (stereo not drawn)
inactive: dose: 100.0 mg/kg/injection, schedule: Q01DX001 (ip), vehicle: saline with Tween-80 92 % of control | dose: 200.0 mg/kg/injection, schedule: Q01DX001 (ip), vehicle: saline with Tween-80 105 % of control | dose: 400.0 mg/kg/injection, schedule: Q01DX001 (ip), vehicle: saline with Tween-80 108 % of control

CC(=O)Nc1nc(CCl)cs1
inactive: dose: 25.0 mg/kg/injection, schedule: Q01DX009 (ip), vehicle: Klucel (hydroxypropylcellulose) (HPC) 100 % of control | [1] 102 % of control | [2] 103 % of control | [3] 110 % of control

CC(=N/NC(=S)NCC(C)C)/C(C)=N\Nc1ccc(Cl)cc1
inactive: [4] 97 % of control | [5] 106 % of control | [6] 99 % of control

CC1(C)OI(O)c2ccccc21
inactive: dose: 100.0 mg/kg/injection, schedule: Q04DX002 (ip), vehicle: Klucel (hydroxypropylcellulose) (HPC) 100 % of control | dose: 200.0 mg/kg/injection, schedule: Q04DX002 (ip), vehicle: Klucel (hydroxypropylcellulose) (HPC) 100 % of control

CC[N+](C)(CC)C1C(S(=O)(=O)c2ccccc2)CC1(C)C (stereo not drawn)
inactive: dose: 25.0 mg/kg/injection, schedule: Q01DX005 (ip), vehicle: saline 108 % of control | [7] 98 % of control | [8] 99 % of control

COc1cc(C(CC(=O)O)CC(=O)O)cc(OC)c1OC
inactive: dose: 50.0 mg/kg/injection, schedule: Q01DX005 (ip), vehicle: saline with Tween-80 93 % of control | dose: 100.0 mg/kg/injection, schedule: Q01DX005 (ip), vehicle: saline with Tween-80 95 % of control | dose: 200.0 mg/kg/injection, schedule: Q01DX005 (ip), vehicle: saline with Tween-80 95 % of control

CC(NNC(=S)N1CCCCCC1)c1cccc[n+]1[O-] (stereo not drawn)
inactive: [9] 101 % of control | [10] 101 % of control | [11] 93 % of control

CCN(CC)CCOC(=O)Cc1cccc2c(=O)cc(-c3ccc(OC)cc3)oc12
inactive: dose: 12.5 mg/kg/injection, schedule: Q01DX005 (ip), vehicle: Klucel (hydroxypropylcellulose) (HPC) 113 % of control | dose: 25.0 mg/kg/injection, schedule: Q01DX005 (ip), vehicle: Klucel (hydroxypropylcellulose) (HPC) 113 % of control | [9] 98 % of control | [10] 121 % of control

COc1nc2[nH]c(C)cc(=O)c2c2ccccc12
inactive: [12] 98 % of control | [13] 98 % of control

CCOC(=O)C(NC(=O)OCc1ccccc1)C(O)C#C[Si](C)(C)C (stereo not drawn)
inactive: dose: 100.0 mg/kg/injection, schedule: Q04DX002 (ip), vehicle: saline with Tween-80 95 % of control | dose: 200.0 mg/kg/injection, schedule: Q04DX002 (ip), vehicle: saline with Tween-80 95 % of control | dose: 400.0 mg/kg/injection, schedule: Q04DX002 (ip), vehicle: saline with Tween-80 90 % of control

CCOC(=O)/C=C/c1c[nH]c(=O)[nH]c1=O
inactive: [14] 100 % of control | [15] 96 % of control | [16] 92 % of control | [17] 88 % of control

CC(=O)c1ccc(Cl)c(-n2cccc2)c1
inactive: [9] 95 % of control | [10] 101 % of control

COC(=O)C1(CC(=O)CC(=O)CC2(C(=O)OC)NC(=S)NC(=O)C2C#N)NC(=S)NC(=O)C1C#N (stereo not drawn)
inactive: [12] 106 % of control | [13] 100 % of control | [18] 100 % of control

Cc1ccc(S(=O)(=O)CC(=O)CC(=O)C(=O)Nc2ccc(Cl)cc2Cl)cc1
inactive: [12] 100 % of control | [13] 100 % of control | [18] 100 % of control

O=C1CN(C2CC2N2CC(=O)NC(=O)C2)CC(=O)N1 (stereo not drawn)
inactive: dose: 100.0 mg/kg/injection, schedule: Q04DX003 (ip), vehicle: saline with Tween-80 97 % of control | dose: 200.0 mg/kg/injection, schedule: Q04DX003 (ip), vehicle: saline with Tween-80 100 % of control | dose: 400.0 mg/kg/injection, schedule: Q04DX003 (ip), vehicle: saline with Tween-80 100 % of control

O=S(=O)(O)c1c(O)ccc2nc3ccccc3nc12
inactive: [19] 99 % of control and 97 % of control | [20] 98 % of control and 96 % of control | [4] 103 % of control and 104 % of control and 106 % of control | [5] 98 % of control | [6] 96 % of control

O=C1CC2(CCCCC2)CC(=O)N1c1ccc(O)c(CN2CCCCC2)c1
inactive: [1] 104 % of control | [2] 108 % of control | [3] 102 % of control

Oc1ccc2c(c1)OC1(c3ccccc3)CC2N=CN1 (stereo not drawn)
inactive: [19] 103 % of control | [20] 95 % of control | [4] 107 % of control | dose: 50.0 mg/kg/injection, schedule: Q01DX009 (ip), vehicle: suspension in saline 98 % of control and 92 % of control | dose: 100.0 mg/kg/injection, schedule: Q01DX009 (ip), vehicle: suspension in saline 98 % of control and 92 % of control | dose: 200.0 mg/kg/injection, schedule: Q01DX009 (ip), vehicle: suspension in saline 99 % of control

CCOC(=O)C1CC(=O)c2ccccc2C1 (stereo not drawn)
inactive: dose: 6.25 mg/kg/injection, schedule: Q01DX009 (ip), vehicle: distilled water + Tween-80 101 % of control | [14] 96 % of control | [15] 95 % of control | [16] 102 % of control | [17] 100 % of control | dose: 200.0 mg/kg/injection, schedule: Q01DX009 (ip), vehicle: distilled water + Tween-80 101 % of control | dose: 400.0 mg/kg/injection, schedule: Q01DX009 (ip), vehicle: distilled water + Tween-80 109 % of control

Cn1ccn(C)c1=S
inactive: [4] 107 % of control | [5] 97 % of control | [6] 101 % of control

N#Cc1ccc[nH]c1=S
inactive: dose: 50.0 mg/kg/injection, schedule: Q01DX009 (ip), vehicle: saline with Tween-80 95 % of control | dose: 100.0 mg/kg/injection, schedule: Q01DX009 (ip), vehicle: saline with Tween-80 102 % of control | dose: 200.0 mg/kg/injection, schedule: Q01DX009 (ip), vehicle: saline with Tween-80 104 % of control

O=CNC(Cc1ccccc1)c1ccc(OCc2ccccc2)cc1 (stereo not drawn)
inactive: [9] 98 % of control | [10] 92 % of control | [11] 87 % of control

Cc1c2oc3c(C)ccc(C(=O)NC(C(=O)NC(C(=O)O)C(C)C)C(C)O)c3nc-2c(C(=O)NC(C(=O)NC(C(=O)O)C(C)C)C(C)O)c(N)c1=O (stereo not drawn)
inactive: dose: 0.05 mg/kg/injection, schedule: Q01DX009 (ip), vehicle: water 100 % of control | dose: 0.1 mg/kg/injection, schedule: Q01DX009 (ip), vehicle: water 97 % of control | dose: 0.2 mg/kg/injection, schedule: Q01DX009 (ip), vehicle: water 94 % of control | dose: 0.4 mg/kg/injection, schedule: Q01DX009 (ip), vehicle: water 99 % of control | dose: 0.8 mg/kg/injection, schedule: Q01DX009 (ip), vehicle: water 97 % of control | dose: 1.6 mg/kg/injection, schedule: Q01DX009 (ip), vehicle: water 102 % of control

COc1cc(C)c(/C(=N/O)n2nnc(-c3ccccc3)n2)c(C)c1
inactive: dose: 15.0 mg/kg/injection, schedule: Q01DX005 (ip), vehicle: saline with Tween-80 98 % of control | dose: 30.0 mg/kg/injection, schedule: Q01DX005 (ip), vehicle: saline with Tween-80 100 % of control | [12] 100 % of control and 91 % of control

NCC(N)CCC(=O)O (stereo not drawn)
inactive: [7] 99 % of control | [8] 105 % of control | dose: 200.0 mg/kg/injection, schedule: Q01DX005 (ip), vehicle: saline 105 % of control

COC(=S)SCN(CSC(=S)OC)c1ccccc1Cl
inactive: dose: 100.0 mg/kg/injection, schedule: Q04DX003 (ip), vehicle: saline 100 % of control | dose: 200.0 mg/kg/injection, schedule: Q04DX003 (ip), vehicle: saline 100 % of control | dose: 400.0 mg/kg/injection, schedule: Q04DX003 (ip), vehicle: saline 118 % of control

O=C(N1CCC(CCN2CCCC2)CC1)C(O)(c1ccccc1)c1ccccc1
inactive: dose: 25.0 mg/kg/injection, schedule: Q04DX002 (ip), vehicle: saline 107 % of control | dose: 50.0 mg/kg/injection, schedule: Q04DX002 (ip), vehicle: saline 107 % of control | dose: 100.0 mg/kg/injection, schedule: Q04DX002 (ip), vehicle: saline 106 % of control and 97 % of control
